By IC50 is commonly meant the concentration needed to halve the response being measured. The AUC(0-t) is the area under the concentration-time curve up to a stated or last time point. A word on the Cmax: it is the peak of the concentration-time curve. What is called half-life is how long it takes for the measured level to halve. Higher therefore signals slow loss.

Consider 20 molecules from patent US20230048888A1, “USE OF TRIAZOLOTRIAZINE DERIVATIVE IN TREATMENT OF DISEASES” (ZHEJIANG VIMGREEN PHARMACEUTICALS, LTD., priority 2019, published 2023).

Series [1] concerns the target T1, adenosine receptors A2A (Homo sapiens, UniProt P29274).
T1 construct: expressed in transfected cells; host or cells: HEK293 (hADORA2A-HEK293)
In words: TR-FRET-based cAMP accumulation assay in hADORA2A-HEK293 cells. In kind it is cell-based. Conditions: NECA at EC80, hADORA2A-HEK293, read-out: A2AR activity (IC50). The protocol: The inhibitory effects of the test compounds on the adenosine receptors A2A were evaluated by TR-FRET-based cAMP accumulation assay. The method included, in HEK293 cells (hADORA2A-HEK293) expressing A2AR, the production of cAMP stimulated by NECA and the inhibitory effect of A2A receptor antagonists on cAMP. All cells were cultured in a complete medium at 37° C. in the presence of 5% CO2. After being digested with trypsin, the cells were collected by centrifugation at 200 g for 5 minutes. The cells were resuspended in a fresh complete medium, and then the cell viability was counted by a trypan blue exclusion method. […] The cells were diluted with Hank's buffer solution containing HEPES (5 mM), BSA stabilizer (0.1%) and Rolipram (10 μM), then added to a 384-well white non-transparent plate (cells/well, 10 μl/well), and incubated with the test compound at an appropriate concentration (11 concentrations) for 20 minutes at room temperature. Then, the A2A receptor agonist NECA (final concentration=EC80, which was determined in the same experiment performed earlier) was added to the sample, and the sample was incubated again at 37° C. for 30 minutes.
An inhibition rate (%) was calculated according to the following formula, and an IC50 value was calculated from a concentration-inhibition (%) curve after log conversion.
A curve corresponding to the dose was fitted by using XLfit software and the IC50 was determined.

Series [2] is described as follows: Pharmacokinetics of test compounds in SD rats (15.2; IV and PO, mixed administration). It is filed as in vivo. The conditions noted are these: male, Sprague-Dawley, rat, plasma; SD rats, PO, 2 mg/kg, mixed administration (6 compounds per group). How it is done:
Administration dose: the compounds in this group were all administered in a mixed way, with 6 compounds in each group for mixed PO administration.
Blood was collected based on the blood collection points in the test protocol. 50 μL of plasma sample was added with acetonitrile (containing 5 ng/mL Verapamil) being 3 folds of the volume thereof; the resulting mixture was vortexed for 30 s, and then centrifuged for 15 min at 15,000 rpm at 4° C.; and 10μ L of supernatant was taken for LC-MS/MS analysis.
For each compound, 3 male SD rats weighing 200-220 g were fasted for one night before dosage, but had access to water.
Orally intragastric administration: before intragastric administration and at 0.083 h, 0.25 h, 0.5 h, 1 h, 2 h, 4 h, 8 h and 24 h after administration (for Compounds 40, 27, 40 and 47), or at 0.25 h, 0.5 h, 1 h, 4 h, 6 h and 8 h after administration (for Compounds 44 and 48), orbital blood was collected and put in a test tube that was treated with heparin sodium, and after centrifugation, the supernatant plasma was collected for LC-MS/MS analysis.
The plasma samples were processed according to the method for “sample treatment” and then analyzed by LC-MS/MS, accompanied with the standard curve and quality control samples. At a time point when the upper limit of quantification was exceeded, the samples were diluted 10 or 100 folds for analysis. All measured data were collected and processed by Analyst 1.6.3 software, and the data were calculated and processed with Microsoft Excel. With DAS 3.2.8 software, the pharmacokinetic parameters were calculated by the statistical moment method. The pharmacokinetic parameters mainly include Tmax, t1/2, Cmax, AUC(0-t), etc.

Series [3] in a line: Pharmacokinetics of Compounds 27, 16, 14 and 22 in SD rats. In kind it is in vivo. Conditions: for AUC(0-t) / Cmax / half-life / clearance: Sprague-Dawley, rat, in vivo; for clearance: read-out: Cl—pred (converted). The text has this: WinNonlin® 6.4 was used as the calculation software for PK parameters.

T1 sequence (P29274 whole entry): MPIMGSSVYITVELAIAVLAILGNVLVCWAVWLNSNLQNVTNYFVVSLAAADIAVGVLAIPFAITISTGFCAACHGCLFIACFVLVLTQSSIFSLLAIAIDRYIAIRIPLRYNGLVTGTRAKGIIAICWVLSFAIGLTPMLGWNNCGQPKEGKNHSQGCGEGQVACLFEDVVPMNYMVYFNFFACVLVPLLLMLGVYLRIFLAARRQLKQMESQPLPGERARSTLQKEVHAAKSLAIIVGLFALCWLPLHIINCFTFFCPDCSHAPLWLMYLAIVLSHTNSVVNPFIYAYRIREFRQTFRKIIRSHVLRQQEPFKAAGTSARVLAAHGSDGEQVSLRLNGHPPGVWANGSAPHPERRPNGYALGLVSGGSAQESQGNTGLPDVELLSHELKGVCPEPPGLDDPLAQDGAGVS

As to `CC1(C(=O)Nc2ccc(CCNc3nc(N)n4nc(-c5ccco5)nc4n3)cc2)CCOCC1` [Compound 6, N-(4-(2-((7-amino-2-(furan-2-yl)-[1,2,4]triazolo[1,5-a][1,3,5]triazin-5-yl)amino)ethyl)phenyl)-4-methyltetrahydro-2H-pyran-4-carboxamide], the concentration for half-maximal inhibition (IC50) in series [1] is 9.24 nM.

In turn, `Nc1nc(NCCc2ccc(-c3nnn(CC(F)(F)F)n3)cc2)nc2nc(-c3ccco3)nn12` [Compound 46, N5-(4-(2-(2,2,2-trifluoroethyl)-2H-tetrazol-5-yl)phenethyl)-2-(furan-2-yl)-[1,2,4]triazolo[1,5-a][1,3,5]triazine-5,7-diamine] gave an AUC(0-t) in series [2] of 739 ng·h/mL.

In series [2], `N#CCn1nnc(-c2ccc(CCNc3nc(N)n4nc(-c5ccco5)nc4n3)cc2)n1` [Compound 44, 2-(5-(4-(2-(7-amino-2-(furan-2-yl)-[1,2,4]triazolo[1,5-a][1,3,5]triazine-5-ylamino)ethyl)-phenyl)-2H-tetrazol-2-yl)acetonitrile] returned an exposure AUC(0-t) of 341 ng·h/mL.

Turning to `COCCOCCNc1ccc(CCNc2nc(N)n3nc(-c4ccco4)nc3n2)cc1` [Compound 28, 2-(furan-2-yl)-N5-(4-((2-(2-methoxyethoxy)ethyl)amino)phenethyl)-[1,2,4]triazolo[1,5-a][1,3,5]triazine-5,7-diamine], the AUC(0-t) in series [2] was 757 ng·h/mL. For the same molecule, the IC50 in series [1] was 6.77 nM.

In series [2], `CC(C)n1nnc(-c2ccc(CCNc3nc(N)n4nc(-c5ccco5)nc4n3)cc2)n1` [Compound 42, N5-(4-(2-isopropyl-2H-tetrazol-5-yl)phenethyl)-2-(furan-2-yl)-[1,2,4]triazolo[1,5-a][1,3,5]triazine-5,7-diamine] registered an AUC(0-t) of 818 ng·h/mL. Moreover, in series [1], the concentration for half-maximal inhibition (IC50) was 9.08 nM.

As to `Nc1nc(NCCc2ccc(NC3CCOCC3)cc2)nc2nc(-c3ccco3)nn12` [Compound 18, 2-(furan-2-yl)-N5-(4-((tetrahydro-2H-pyran-4-yl)amino)phenethyl)-[1,2,4]triazolo[1,5-a][1,3,5]triazine-5,7-diamine], the exposure AUC(0-t) in series [2] amounted to 441 ng·h/mL. Besides, the IC50 in series [1] was determined as 3.83 nM.

As for `CN(C)C(=O)c1ccc(CCNc2nc(N)n3nc(-c4ccco4)nc3n2)cc1` [Compound 38, 4-(2-(7-amino-2-(furan-2-yl)-[1,2,4]triazolo[1,5-a][1,3,5]triazine-5-ylamino)ethyl)-N,N-dimethylbenzamide], the IC50 in series [1] is 8.71 nM.

`COCCN(C)c1ccc(CCNc2nc(N)n3nc(-c4ccco4)nc3n2)cc1` [Compound 25, 2-(furan-2-yl)-N5-(4-((2-methoxyethyl)(methyl)amino)phenethyl)-[1,2,4]triazolo[1,5-a][1,3,5]triazine-5,7-diamine] returned an exposure AUC(0-t) in series [2] of 142 ng·h/mL.

`CCCn1nnc(-c2ccc(CCNc3nc(N)n4nc(-c5ccco5)nc4n3)cc2)n1` [Compound 43, N5-(4-(2-propyl-2H-tetrazol-5-yl)phenethyl)-2-(furan-2-yl)-[1,2,4]triazolo[1,5-a][1,3,5]triazine-5,7-diamine] had an area under the curve AUC(0-t) in series [2] of 315 ng·h/mL.

In series [2], `Nc1nc(NCCc2ccc(NC3COC3)cc2)nc2nc(-c3cccc(F)c3)nn12` [Compound 37, 2-(3-fluorophenyl)-N5-(4-(oxetan-3-ylamino)phenethyl)-[1,2,4]triazolo[1,5-a][1,3,5]triazine-5,7-diamine] displayed an exposure AUC(0-t) of 1830 ng·h/mL. Further, the half-maximal inhibitory concentration (IC50) in series [1] was 7.07 nM.

Regarding `Nc1nc(NCCc2ccc(OCCN3CC[C@H](F)C3)cc2)nc2nc(-c3ccco3)nn12` [Compound 16, (S)-N5-(4-(2-(3-fluoropyrrolidin-1-yl)ethoxy)phenethyl)-2-(furan-2-yl)-[1,2,4]triazolo[1,5-a][1,3,5]triazine-5,7-diamine], in series [3] (PO, dose 10 (mg/kg)), the “Cl—F—pred” value came out at 233 mL/min/kg, the AUC(0-t) was 758 ng·h/mL, the Cmax is 258 ng/mL and the half-life is 4.78 h. Besides, in series [3] (IV, dose 1 (mg/kg)), the exposure AUC(0-t) stood at 536 ng·h/mL, the peak level (Cmax) was 986 ng/mL, the half-life is 0.61 h and the clearance was 31.5 mL/min/kg.

On to `Nc1nc(NCCc2ccc(-c3ncccn3)cc2)nc2nc(-c3ccco3)nn12` [Compound 51, 2-(furan-2-yl)-N5-(4-(pyrimidin-2-yl)phenethyl)-[1,2,4]triazolo[1,5-a][1,3,5]triazine-5,7-diamine], for which the AUC(0-t) in series [2] was found to be 420 ng·h/mL.

As for `Cn1cnc(-c2ccc(CCNc3nc(N)n4nc(-c5ccco5)nc4n3)cc2)n1` [Compound 52, 2-(furan-2-yl)-N5-(4-(1-methyl-1H-1,2,4-triazol-3-yl)phenethyl)-[1,2,4]triazolo[1,5-a][1,3,5]triazine-5,7-diamine], the AUC(0-t) in series [2] was found to be 388 ng·h/mL.

In series [2], `COCC(COC)Nc1ccc(CCNc2nc(N)n3nc(-c4ccco4)nc3n2)cc1` [Compound 35, N5-(4-(1,3-dimethoxypropane-2-ylamino)phenethyl)-2-(furan-2-yl)-[1,2,4]triazolo[1,5-a][1,3,5]triazine-5,7-diamine] returned an AUC(0-t) of 1600 ng·h/mL. Further, the IC50 in series [1] worked out at 4.88 nM.

In the case of `Nc1nc(NCCc2ccc(OCCN3CCC(F)(F)C3)cc2)nc2nc(-c3ccco3)nn12` [Compound 14, N5-(4-(2-(3,3-difluoropyrrolidin-1-yl)ethoxy)phenethyl)-2-(furan-2-yl)-[1,2,4]triazolo[1,5-a][1,3,5]triazine-5,7-diamine], in series [3] (PO, dose 10 (mg/kg)), the “Cl—F—pred” value is 144 mL/min/kg, the F turned out to be 17.90%, the AUC(0-t) is 1210 ng·h/mL and the concentration peaked (Cmax) at 574 ng/mL. The half-life in series [3] (PO, dose 10 (mg/kg)) is 3.05 h. In series [3] (IV, dose 1 (mg/kg)), the AUC(0-t) was 678 ng·h/mL, the highest level (Cmax) was 1680 ng/mL, the half-life was 0.44 h and the clearance is 24.7 mL/min/kg.

Molecule `COCCN(CCOC)c1ccc(CCNc2nc(N)n3nc(-c4ccco4)nc3n2)cc1` [Compound 21, N5-(4-(bis(2-methoxyethyl)amino)phenethyl)-2-(furan-2-yl)-[1,2,4]triazolo[1,5-a][1,3,5]triazine-5,7-diamine] displayed an area under the curve AUC(0-t) in series [2] of 603 ng·h/mL. In addition, the IC50 in series [1] came to 1.62 nM.

Consider `Nc1nc(NCCc2ccc(-c3ccccn3)cc2)nc2nc(-c3ccco3)nn12` [Compound 48, 2-(furan-2-yl)-N5-(4-(pyridin-2-yl)phenethyl)-[1,2,4]triazolo[1,5-a][1,3,5]triazine-5,7-diamine], for which the AUC(0-t) in series [2] worked out at 597 ng·h/mL.

In the case of `COCCOCCOCCNc1ccc(CCNc2nc(N)n3nc(-c4ccco4)nc3n2)cc1` [Compound 29, 2-(furan-2-yl)-N5-(4-((2-(2-(2-methoxyethoxy)ethoxy)ethyl)amino)phenethyl)-[1,2,4]triazolo[1,5-a][1,3,5]triazine-5,7-diamine], the AUC(0-t) in series [2] came to 160 ng·h/mL.

In the case of `CCOCCNc1ccc(CCNc2nc(N)n3nc(-c4ccco4)nc3n2)cc1` [Compound 30, N5-(4-((2-ethoxyethyl)amino)phenethyl)-2-(furan-2-yl)-[1,2,4]triazolo[1,5-a][1,3,5]triazine-5,7-diamine], the concentration for half-maximal inhibition (IC50) in series [1] stood at 3.52 nM.

The molecule `N#Cc1ccc(CCNc2nc(N)n3nc(-c4ccco4)nc3n2)cc1` [Compound 45, 4-(2-(7-amino-2-(furan-2-yl)-[1,2,4]triazolo[1,5-a][1,3,5]triazine-5-ylamino)ethyl)-benzonitrile] registered an AUC(0-t) in series [2] of 718 ng·h/mL.
